pIC50: −log10 of the molar value.
Assays:
Type in all cases: cell-based
human TLR7 = target: T1, human TLR7 (Homo sapiens, UniProt Q9NYK1); test: TLR7 inhibition reporter assay (HEK-Blue cells, SEAP reporter, gardiquimod stimulation); details: HEK-Blue cells overexpressing human TLR7, SEAP reporter, gardiquimod 7.5 μM
T1 construct: host or cells: HEK-Blue cells (HEK293-derived reporter line)
T1 sequence (Q9NYK1 27-1049): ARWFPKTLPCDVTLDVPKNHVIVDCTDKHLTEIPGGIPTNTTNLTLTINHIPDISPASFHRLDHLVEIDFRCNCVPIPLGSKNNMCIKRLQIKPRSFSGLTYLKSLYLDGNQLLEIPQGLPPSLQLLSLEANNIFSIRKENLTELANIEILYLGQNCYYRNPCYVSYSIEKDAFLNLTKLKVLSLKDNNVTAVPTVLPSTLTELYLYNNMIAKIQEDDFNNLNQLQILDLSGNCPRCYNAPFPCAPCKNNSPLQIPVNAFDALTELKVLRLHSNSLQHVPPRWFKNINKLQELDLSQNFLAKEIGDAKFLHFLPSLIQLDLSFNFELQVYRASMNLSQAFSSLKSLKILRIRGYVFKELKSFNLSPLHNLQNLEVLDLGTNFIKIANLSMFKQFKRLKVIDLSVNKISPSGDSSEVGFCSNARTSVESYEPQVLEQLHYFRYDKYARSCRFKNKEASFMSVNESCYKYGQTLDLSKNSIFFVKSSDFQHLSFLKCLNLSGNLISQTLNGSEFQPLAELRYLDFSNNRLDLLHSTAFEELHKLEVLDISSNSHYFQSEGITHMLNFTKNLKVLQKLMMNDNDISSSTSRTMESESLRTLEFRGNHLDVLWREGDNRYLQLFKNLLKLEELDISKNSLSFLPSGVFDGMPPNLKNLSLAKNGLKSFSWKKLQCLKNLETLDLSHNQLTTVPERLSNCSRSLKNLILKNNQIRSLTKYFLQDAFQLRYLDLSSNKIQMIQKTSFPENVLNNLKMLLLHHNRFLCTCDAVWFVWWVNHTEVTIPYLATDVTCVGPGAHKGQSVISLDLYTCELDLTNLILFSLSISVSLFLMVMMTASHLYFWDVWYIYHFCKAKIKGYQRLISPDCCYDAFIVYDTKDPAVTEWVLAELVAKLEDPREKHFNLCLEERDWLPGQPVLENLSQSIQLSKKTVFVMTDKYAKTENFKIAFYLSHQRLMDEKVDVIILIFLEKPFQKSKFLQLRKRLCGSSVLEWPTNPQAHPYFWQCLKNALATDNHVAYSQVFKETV
Method in brief: (§1)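 HEK-Blue cells overexpressing the receptor, with NF-κB/AP-1-driven SEAP, were pre-treated 30 min at room temperature with compound (0.05 nM–50 μM), then stimulated with gardiquimod 7.5 μM (TLR7), R848 15.9 μM (TLR8) or ODN2006 5 nM (TLR9). SEAP was read after 22 h at 37 °C as percent inhibition.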

human TLR8 = target: T2, human TLR8 (Homo sapiens, UniProt Q9NR97); test: TLR8 inhibition reporter assay (HEK-Blue cells, SEAP reporter, R848 stimulation); details: HEK-Blue cells overexpressing human TLR8, SEAP reporter, R848 15.9 μM
T2 construct: host or cells: HEK-Blue cells (HEK293-derived reporter line)
T2 sequence (Q9NR97 27-1041): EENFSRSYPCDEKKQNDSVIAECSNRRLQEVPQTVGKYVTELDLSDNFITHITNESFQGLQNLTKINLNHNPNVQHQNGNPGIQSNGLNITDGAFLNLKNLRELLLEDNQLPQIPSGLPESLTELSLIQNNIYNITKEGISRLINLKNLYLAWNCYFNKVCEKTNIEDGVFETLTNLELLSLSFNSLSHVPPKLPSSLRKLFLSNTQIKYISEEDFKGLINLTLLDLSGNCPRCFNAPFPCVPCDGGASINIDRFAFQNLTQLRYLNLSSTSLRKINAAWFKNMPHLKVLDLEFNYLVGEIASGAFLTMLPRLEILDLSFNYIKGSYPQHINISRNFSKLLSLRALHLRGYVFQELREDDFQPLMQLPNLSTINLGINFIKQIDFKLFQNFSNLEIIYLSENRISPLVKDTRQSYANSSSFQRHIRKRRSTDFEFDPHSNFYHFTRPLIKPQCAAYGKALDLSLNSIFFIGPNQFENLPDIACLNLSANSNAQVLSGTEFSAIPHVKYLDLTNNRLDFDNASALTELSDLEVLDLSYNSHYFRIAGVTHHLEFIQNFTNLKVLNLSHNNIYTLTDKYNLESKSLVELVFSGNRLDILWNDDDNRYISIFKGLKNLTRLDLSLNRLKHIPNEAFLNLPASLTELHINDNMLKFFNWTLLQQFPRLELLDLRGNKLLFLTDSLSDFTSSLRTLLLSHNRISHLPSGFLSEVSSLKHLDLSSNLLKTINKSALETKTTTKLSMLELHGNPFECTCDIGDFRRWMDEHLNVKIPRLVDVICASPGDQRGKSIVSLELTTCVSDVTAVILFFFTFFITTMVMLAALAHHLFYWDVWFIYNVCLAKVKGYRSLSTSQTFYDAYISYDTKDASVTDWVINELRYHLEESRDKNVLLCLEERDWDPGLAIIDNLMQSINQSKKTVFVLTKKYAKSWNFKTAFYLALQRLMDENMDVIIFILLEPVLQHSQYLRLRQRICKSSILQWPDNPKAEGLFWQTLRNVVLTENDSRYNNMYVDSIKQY
Method in brief: as §1

human TLR9 = target: T3, human TLR9 (Homo sapiens, UniProt Q9NR96); test: TLR9 inhibition reporter assay (HEK-Blue cells, SEAP reporter, ODN2006 stimulation); details: HEK-Blue cells overexpressing human TLR9, SEAP reporter, ODN2006 5 nM
T3 construct: host or cells: HEK-Blue cells (HEK293-derived reporter line)
T3 sequence (Q9NR96 26-1032): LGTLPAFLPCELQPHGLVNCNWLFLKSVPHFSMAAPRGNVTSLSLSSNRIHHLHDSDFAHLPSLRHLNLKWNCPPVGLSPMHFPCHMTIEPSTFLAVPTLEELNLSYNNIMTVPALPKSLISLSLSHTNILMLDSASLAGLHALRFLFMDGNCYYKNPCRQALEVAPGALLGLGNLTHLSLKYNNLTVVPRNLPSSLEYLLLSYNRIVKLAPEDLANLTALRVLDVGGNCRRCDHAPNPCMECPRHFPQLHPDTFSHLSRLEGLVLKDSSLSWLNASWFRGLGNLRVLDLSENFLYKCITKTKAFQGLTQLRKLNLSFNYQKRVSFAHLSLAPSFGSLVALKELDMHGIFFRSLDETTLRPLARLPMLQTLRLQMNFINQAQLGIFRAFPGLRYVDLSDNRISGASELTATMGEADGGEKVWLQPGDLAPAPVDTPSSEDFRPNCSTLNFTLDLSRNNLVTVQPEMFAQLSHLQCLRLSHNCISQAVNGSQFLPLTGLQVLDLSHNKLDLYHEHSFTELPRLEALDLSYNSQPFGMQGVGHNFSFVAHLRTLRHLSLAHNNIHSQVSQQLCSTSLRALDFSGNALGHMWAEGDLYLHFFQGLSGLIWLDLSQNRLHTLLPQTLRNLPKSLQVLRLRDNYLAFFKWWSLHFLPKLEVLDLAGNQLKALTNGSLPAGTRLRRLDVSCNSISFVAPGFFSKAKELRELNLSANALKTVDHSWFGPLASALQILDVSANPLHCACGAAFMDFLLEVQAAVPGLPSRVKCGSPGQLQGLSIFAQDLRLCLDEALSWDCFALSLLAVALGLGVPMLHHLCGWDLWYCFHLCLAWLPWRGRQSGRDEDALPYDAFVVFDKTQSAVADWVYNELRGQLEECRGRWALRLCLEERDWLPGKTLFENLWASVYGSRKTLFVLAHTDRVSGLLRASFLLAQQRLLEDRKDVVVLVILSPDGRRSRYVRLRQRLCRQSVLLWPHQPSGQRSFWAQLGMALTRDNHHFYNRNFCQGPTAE
Method in brief: as §1

Row | Compound | pIC50 (human TLR7) | pIC50 (human TLR8) | pIC50 (human TLR9)
1 | CCc1c(-c2cccc3c2cnn3C)[nH]c2ccc(C3CCN(C(=O)CN[C@H]4CC[C@@H](N)CC4)CC3)cc12 [Example 519, 2-(((1s,4s)-4-aminocyclohexyl)amino)-1-(4-(3-ethyl-2-(1-methyl-1H-indazol-4-yl)-1H-indol-5-yl)piperidin-1-yl)ethan-1-one] | < 4.30 | < 4.30 | 4.30 to 6.00
2 | CC(C)c1c(-c2ccnc3[nH]ncc23)[nH]c2ccc(C3CCN(C(=O)CS(C)(=O)=O)CC3)cc12 [Example 614, 1-(4-(3-isopropyl-2-(1H-pyrazolo[3,4-b]pyridin-4-yl)-1H-indol-5-yl)piperidin-1-yl)-2-(methylsulfonyl)ethan-1-one] | > 7.00 | > 7.00 | < 4.30
3 | CC(C)c1c(-c2cc(N)c3nccn3c2)[nH]c2ccc(C3CCNCC3)cc12 [Example 117, 6-(3-isopropyl-5-(piperidin-4-yl)-1H-indol-2-yl)imidazo[1,2-a]pyridin-8-amine] | > 7.00 | > 7.00 | 6.00 to 7.00
4 | CC(C)c1c(-c2cnc3ccnn3c2)[nH]c2ccc(C3CCN(C4COC4)CC3)cc12 [Example 713, 6-(3-isopropyl-5-(1-(oxetan-3-yl)piperidin-4-yl)-1H-indol-2-yl)pyrazolo[1,5-a]pyrimidine] | < 5.51 | < 5.51 | 4.30 to 6.00
5 | COc1cc(-c2[nH]c3ccc(C4CCN(CC(=O)N(C)C)CC4)cc3c2C(C)C)nn2ncnc12 [Example 283, 2-(4-(3-isopropyl-2-(8-methoxy-[1,2,4]triazolo[1,5-b]pyridazin-6-yl)-1H-indol-5-yl)piperidin-1-yl)-N,N-dimethylacetamide] | > 7.00 | 6.00 to 7.00 | 4.30 to 6.00
6 | COc1c(C)c(-c2[nH]c3ccc(C4CCN(C5CCOCC5)CC4)cc3c2C(C)C)nn2ncnc12 [Example 685, 6-(3-isopropyl-5-(1-(tetrahydro-2H-pyran-4-yl)piperidin-4-yl)-1H-indol-2-yl)-8-methoxy-7-methyl-[1,2,4]triazolo[1,5-b]pyridazine] | > 7.00 | > 7.00 | 4.30 to 6.00
7 | Cc1ccnc2c1c(-c1[nH]c3ccc(C4CCN(C5CCOCC5)CC4)cc3c1C(C)C)cn2C [Example 689, 3-(3-isopropyl-5-(1-(tetrahydro-2H-pyran-4-yl)piperidin-4-yl)-1H-indol-2-yl)-1,4-dimethyl-1H-pyrrolo[2,3-b]pyridine] | > 7.00 | > 7.00 | 4.30 to 6.00
8 | Cc1c(-c2ccc3[nH]nnc3c2)[nH]c2ccc(C3CCNCC3)cc12 [Example 52, 5-(3-methyl-5-(piperidin-4-yl)-1H-indol-2-yl)-1H-benzo[d][1,2,3]triazole] | 4.30 to 6.00 | 4.30 to 6.00 | 6.00 to 7.00
9 | CC(C)c1c(-c2ccnc3[nH]ncc23)[nH]c2ccc(C3CCN(C(=O)c4cscn4)CC3)cc12 [Example 611, (4-(3-isopropyl-2-(1H-pyrazolo[3,4-b]pyridin-4-yl)-1H-indol-5-yl)piperidin-1-yl)(thiazol-4-yl)methanone] | > 7.00 | 6.00 to 7.00 | 4.30 to 6.00
10 | Cc1nn2ccc(-c3[nH]c4ccc(C5CCN(CC(=O)N(C)C)CC5)cc4c3C(C)C)cc2c1F [Example 399, 2-(4-(2-(3-fluoro-2-methylpyrazolo[1,5-a]pyridin-5-yl)-3-isopropyl-1H-indol-5-yl)piperidin-1-yl)-N,N-dimethylacetamide] | > 7.00 | 4.30 to 6.00 | 4.30 to 6.00
11 | CCc1c(-c2ccnc3[nH]nc(C)c23)[nH]c2ccc(C3CCNCC3)cc12 [Example 226, 4-(3-ethyl-5-(piperidin-4-yl)-1H-indol-2-yl)-3-methyl-1H-pyrazolo[3,4-b]pyridine] | > 7.00 | > 7.00 | 6.00 to 7.00
12 | CC(C)c1c(-c2ccc3nnnn3c2)[nH]c2ccc(C3CCNCC3)cc12 [Example 80, 6-(3-isopropyl-5-(piperidin-4-yl)-1H-indol-2-yl)tetrazolo[1,5-a]pyridine] | > 7.00 | 6.00 to 7.00 | 4.30 to 6.00
13 | Cc1cc(-c2[nH]c3ccc(C4CCN(CC(C)(C)O)CC4)cc3c2C(C)C)cc2ncnn12 [Example 756, 1-(4-(3-isopropyl-2-(5-methyl-[1,2,4]triazolo[1,5-a]pyridin-7-yl)-1H-indol-5-yl)piperidin-1-yl)-2-methylpropan-2-ol] | > 7.00 | > 7.00 | 4.30 to 6.00
14 | COc1cc(-c2[nH]c3ccc(C4CCN(C5CCOCC5)CC4)cc3c2C(C)C)nn2ncnc12 [Example 692, 6-(3-isopropyl-5-(1-(tetrahydro-2H-pyran-4-yl)piperidin-4-yl)-1H-indol-2-yl)-8-methoxy-[1,2,4]triazolo[1,5-b]pyridazine] | > 7.00 | > 7.00 | 4.30 to 6.00

— patent US11739098B2 (BRISTOL-MYERS SQUIBB COMPANY, priority 2017, dated 2023)
